{
  "source": "patent US20230348415A1",
  "about": "“BISPECIFIC ANTAGONISTS OF RETINOL-BINDING PROTEIN 4 THAT STABILIZE TRANSTHYRETIN TETRAMERS, THEIR PREPARATION, AND USE IN THE TREATMENT OF COMMON AGE-RELATED COMORBIDITIES” (The Trustees of Columbia University in the City of New York, priority 2020, published 2023)",
  "key": {"[1]": {"assay": "Metabolic stability and clearance in human liver microsomes", "assay_type": "in vitro ADME", "protocol": "The results of metabolic stability determinations for novel compounds and testosterone (positive control) were conducted in the presence of human, rat, mouse, and monkey liver microsomes. Values shown are percent of parent remaining after a 30 minute incubation. All measurements were done in duplicate. Assay results for testosterone were within an acceptable range.\nMixed-gender human liver microsomes (Lot #1710084), male Sprague-Dawley rat liver microsomes (Lot #1610290), male CD-1 mouse liver microsomes (Lot #1710069), and male Cynomolgous liver microsomes (Lot #1510193) were purchased from XenoTech. The reaction mixture, minus NADPH, was prepared as described below. The test article was added into the reaction mixture at a final concentration of 1 μM. The control compound, testosterone, was run simultaneously with the test article in a separate reaction. An aliquot of the reaction mixture (without cofactor) was equilibrated in a shaking water bath at 37° C. for 3 minutes. The reaction was initiated by the addition of cofactor, and the mixture was incubated in a shaking water bath at 37° C. Aliquots (100 μL) were withdrawn at 0, 10, 20, 30, and 60. […] Half-lives were calculated using GraphPad software, fitting to a single-phase exponential decay equation."}, "[2]": {"assay": "Plasma protein binding, human plasma", "assay_type": "in vitro ADME", "conditions": "pH 7.4, read-out: % PPB, H (converted)", "protocol": "Plasma protein binding (PPB) for compounds determination for compound (±)-44 in PBS (pH 7.4) was conducted by Eurofins using equilibrium dialysis of plasma with HPLC-UV/Vis detection.\nThe peak areas of the test compound in the buffer and test samples were used to calculate percent binding and recovery according to the following formulas:\n• Areap=Peak area of analyte in protein matrix • Areab=Peak area of analyte in buffer • Areac=Peak area of analyte in control sample"}, "serum RBP4": {"target": "serum RBP4 (Mus musculus (Mouse), UniProt Q00724)", "assay": "Serum RBP4 after long-term oral dosing in Abca4−/− mice", "assay_type": "in vivo", "conditions": "25 mg/kg daily in chow", "protocol": "FIG. 7. Effect of the long-term oral (±)-44 administration in Abca4^−/− mice on serum RBP4 levels. Serum RBP4 levels were measured in vehicle-treated Abca4^−/− mice (squares) and (±)-44-treated Abca4-mice (triangles) at the indicated time points. […] Error bars show S.D. Each data point on the graph represents a serum RBP4 concentration from an individual animal.\nBlood samples were collected from a tail vein. Whole blood was drawn into a centrifuge tube and was allowed to clot at room temperature for 30 minutes followed by centrifugation at 2000 g for 15 minutes at […] to collect serum. Aliquots of plasma samples collected in the mouse pharmacokinetic study were analyzed for the RBP4 concentration using the RBP4 (mouse/rat) dual ELISA kit (AdipoGen, San Diego, CA) following the manufacturer's instructions. In adi-hRBP4 transgenic mouse experiments, blood samples were collected from a tail vein. Whole blood was drawn into a centrifuge tube and was allowed to clot at room temperature for 30 min followed by centrifugation at 2000 g for 15 min at +4° C. to collect serum. Mouse serum RBP4 (produced predominantly in the liver) was measured using the RBP4 (mouse/rat) dual ELISA kit (AdipoGen, San Diego, CA; catalog number AG-45A-0012YTP-KI01)\n(±)-44 was formulated into a Picolab 5053 chow to ensure a daily dosing of 25 mg/kg of (±)-44. […]"}, "Abca4−/−/Rdh8−/− mice [3]": {"system": "Abca4−/−/Rdh8−/− mice", "assay": "A2E accumulation in eyes of Abca4−/−/Rdh8−/− mice", "assay_type": "in vivo, mouse", "conditions": "25 mg/kg daily in chow, 10 weeks, eyecups, HPLC", "text": "FIG. 10. Effect of the long-term oral (±)-44 administration on the level of the lipofuscin fluorophore A2E in eyes of the Abca4^−/−/Rdh8^−/− mice. Bisretinoids were extracted from the eyecups of vehicle-treated wild type mice (circles), vehicle-treated Abca4^−/−/Rdh8^−/− knockout mice (squares), and (±)-44-treated Abca4^−/−/Rdh8^−/− mice (triangles) after 10 weeks of dosing and analyzed by HPLC. A significant 77% reduction in A2E concentration was detected in (±)-44-treated Abca4^−/−/Rdh8^−/− mice compared with vehicle-treated double-knockout controls; one-way ANOVA with Holm-Sidak post hoc test, p<0.0001 (****).\n(±)-44 was formulated into a Picolab 5053 chow to ensure a daily dosing of 25 mg/kg of (±)-44. Long-term 10-week dosing of the compound formulated into a chow was conducted in Abca4^−/−/Rdh8^−/− mice. The age-matched control group of wild-type C57BL/6J mice was kept on a standard Picolab 5053 chow. The age-matched reference group of mice was used for defining the basal level of A2E in mice in the absence of the Abca4 and Rdh8 ablation. […] Following the 10 weeks of dosing, the eyecups of treated and untreated Abca4^−/−/Rdh8^−/− mice as well as the eyecups of the reference wild type mice were collected for the quantitative A2E analysis."}, "Abca4−/−/Rdh8−/− mice [4]": {"system": "Abca4−/−/Rdh8−/− mice", "assay": "Photoreceptor preservation (ONL thickness) in Abca4−/−/Rdh8−/− mice", "assay_type": "in vivo, mouse", "conditions": "25 mg/kg daily in chow, 10 weeks", "protocol": "FIG. 11. Photoreceptor protection in (±)-44-treated Rdh8^−/−Abca4^−/− mice. […] Data analyzed by two-way ANOVA with Sidak post hoc test.\n(±)-44 was formulated into a Picolab 5053 chow to ensure a daily dosing of 25 mg/kg of (±)-44. Long-term 10-week dosing of the compound formulated into a chow was conducted in Abca4^−/−/Rdh8-mice. The age-matched control group of wild-type C57BL/6J mice was kept on a standard Picolab 5053 chow. After 10 weeks of dosing, whole eyes were collected and fixed in the 2% glutaraldehyde/4% paraformaldehyde. Eyes were embedded in paraffin and sectioned at a thickness of 8 μm. Sections were counterstained using hematoxylin and eosin (H&E). Morphologic observations and light microscopy was performed."}},
  "note": "Entries after “also recorded” stand apart in the source; their conditions may differ.",
  "data": [
    {"smiles": "Cc1cc(C(=O)O)nc(N2CCC(COc3ccccc3C(F)(F)F)C2)n1", "note": "(racemic) [Compound (±)-44, (±)-6-Methyl-2-(3-((2-(trifluoromethyl)phenoxy)methyl)pyrrolidin-1-yl)pyrimidine-4-carboxylic Acid]", "values": [
      {"measurement": "Liver Microsomal Stability (% remaining at 30 min), HLM", "setting": "[1]; 30 minute incubation", "result": 105, "unit": "%"},
      {"measurement": "microsomal CLint at 1 μM", "setting": "[1]; both sexes, human liver microsomes, read-out: Microsomal CLint, H", "result": "< 0.0231", "unit": "µL/min/mg"},
      {"measurement": "fraction unbound", "setting": "[2]", "result": 0.002},
      {"measurement": "serum RBP4 reduction compared to untreated Abca4−/− mice", "setting": "serum RBP4; week 12", "result": 82, "unit": "%"},
      {"measurement": "serum RBP4 reduction compared with baseline", "setting": "serum RBP4; week 12, Abca4−/− mice", "result": 79, "unit": "%"},
      {"measurement": "reduction in A2E concentration vs vehicle-treated Abca4−/−/Rdh8−/− mice", "setting": "Abca4−/−/Rdh8−/− mice [3]", "result": 77, "unit": "%"},
      {"measurement": "photoreceptor protection (ONL thickness)", "setting": "Abca4−/−/Rdh8−/− mice [4]", "result": "partially reversed; also recorded: Photoreceptor protection is evident at multiple points in the superior retina"}
    ]}
  ]
}
